From patent publication US7645610B2, “Hepatocyte precursor cell lines” (Massachusetts Institute of Technology, priority 2002, dated 2010)

Experiments:
Assay type in all cases: cell-based, rat
[1] = test system: Lig-14 cells; assay: Colony formation efficiency, Lig-14
[2] = test system: Lig-4 cells; assay: Colony formation efficiency, Lig-4
[3] = test system: conventional cell lines; assay: Growth of conventional cell lines with Xs; details: even when the Xs concentration was doubled (data not shown)
Text: (§1) There was a marked difference in the cell kinetics properties of early passage conventional lines (Lig-1 to -3 in Table 1) and Xs-derived lines (Lig-4 to -15 in Table 1). […] The estimated mean increase in colony formation efficiency for Xs-derived cell lines in Xs-supplemented medium was 11-fold (n=8), ranging from a 10% increase to a 40-fold increase (Lig-13 in Table 1; p<0.0001). The growth of conventional cell lines was unaffected by Xs even when the Xs concentration was doubled (data not shown).

[4] = test system: Lig-7 cells; assay: Colony formation efficiency, Lig-7
[5] = test system: Lig-13 cells; assay: Differentiation marker expression, Xs-free vs Xs-supplemented, Lig-13; design: key: −: no expression detected; +/−: weak expression; +: expression detected; !: increased expression in Xs-free conditions; *: no increased expression in Xs-free conditions
Method: To prepare cell lysates, cells were cultured until 95% confluent. After washing once with ice cold PBS, the cells were solubilized on ice in ice-cold lysis buffer (RIPA buffer; Hinds et al., 1987). The cell lysates were clarified by centrifugation at 13,000 rpm (Eppendorf™ microfuge) for 30 minutes at 4°0 C. and stored at −70°0 C. until further analysis. Soluble protein in lysates was quantified using the Bio-Rad DC™ assay. Twenty micrograms of cell lysates or 25 μl of culture medium samples were separated by SDS-PAGE (8-12% polyacrylamide) and analyzed for specific proteins by the following immunoblot procedure. Electrophoresed proteins were transferred to Hybond ECL membranes in Tris-Glycine-Methanol buffer (25 mM Tris-HCl, pH 7.5, 190 mM glycine, 20% methanol) for 1 hour at 100 volts at room temperature. Membranes were then stained with Ponceau S (0.5%) to verify uniform protein transfer and then blocked with Tris-buffered saline, 5% non-fat dried milk, 0.1% Tween-20 at room temperature for 1 hour. Following three 10-minute washes at room temperature in Tris-buffered saline, 0.1% Tween-20, the membranes were incubated with the specific primary antibodies diluted appropriately in Tris-buffered saline, 1% milk, 0.1% Tween-20 for 12-15 hours at 4° C. For albumin detection, membranes were incubated with an anti-albumin-HRP antibody (EY Laboratories) for 1 hour at room temperature. After removal of the unbound antibodies with three 10-minute washes in Tris-buffered saline-0.1% Tween-20, the membranes (except for albumin detection) were incubated with the anti-goat-HRP (1:2000) or anti-mouse HRP (1:5000) for 1 hour at room temperature. After three 10-minute washes with Tris-buffered saline-0.1% Tween-20, specifically bound HRP-conjugated antibodies were detected using the Amersham Enhanced Chemiluminescence Plus™ system. To re-probe a membrane with a different antibody, it was first incubated for 2.5 h in 0.1M glycine (pH 2.5) at room temperature. Immunohistochemical staining was performed with HRP-conjugated secondary antibodies as recommended by the supplier of primary detection antibodies. [table]

[6] = test system: Lig-1 cells; assay: Differentiation marker expression, Xs-free conditions, Lig-1; design: key: −: no expression detected; +/−: weak expression; +: expression detected; !: increased expression in Xs-free conditions; *: no increased expression in Xs-free conditions; details: in situ immunofluorescence, confluent growth arrest in 1% serum 1-2 weeks
[7] = test system: Lig-13 cells; assay: Colony formation efficiency, Lig-13
[8] = test system: Lig-3 cells; assay: Differentiation marker expression, Xs-free conditions, Lig-3; design: key: −: no expression detected; +/−: weak expression; +: expression detected; !: increased expression in Xs-free conditions; *: no increased expression in Xs-free conditions; details: in situ immunofluorescence, confluent growth arrest in 1% serum 1-2 weeks
[9] = test system: Lig-9 cells; assay: Fc(t) assay for asymmetric cell kinetics, Lig-9
Method: To initiate the assay, 100 cells were plated in 75-cm^2 flasks. After a 16-hour growth period, pairs of new daughter cells were identified under the microscope, and their positions marked for serial examination. Thereafter, the marked microcolonies were examined at roughly ⅓ GT intervals for at least 2 generations. At each examination, the fraction of cells that divided during the previous interval was calculated as described (Sherley et al., 1995a). The estimated cell GT of examined lines was determined simultaneously as described (Sherley et al., 1995ab).
A previously described serial colony formation analyses (the “Fc[t] assay”; Sherley et al., 1995a) was used to quantify the degree of asymmetric cell kinetics by Xs-derived cell lines. The Fc(t) assay quantifies the accumulation rate of cells in micro-colonies examined by serial phase microscopy at intervals of less than one GT from the 2-cell stage (Sherley et al., 1995a). Fc(t) is calculated by summing the fractions of dividing cells determined in each interval and dividing by the total number of GTs examined. When cells divide with symmetric kinetics, the value of Fc(t) approaches 1.0, regardless of the length of the examination period. For asymmetric kinetics, in which one non-dividing daughter is produced at each cell division, Fc(t) is a declining flnction that approaches […] with increasing exam time. […]

[10] = test system: Lig-8 cells; assay: Daughter pair analysis (DPA), Lig-8; details: Xs added, 16% in the absence of Xs, n=58 pairs
Method: (§2) Into 10-cm diameter culture dishes, an estimated 1750 cells were plated in DMEM-10% dFBS, supplemented at the Xs concentration used for derivation, and cultured for 16 hours. Medium was then replaced with either Xs-free medium or medium containing 100 μM Xs, and cells were cultured for an additional 48 h (GT=60 h). Bromo-5-deoxyuridine (BrdU) was then added to the cultures to a concentration of 5 μM for 5 hours. Detection of incorporated BrdU was performed using primary antibody Bu1-75 (Harlan), and a biotinylated secondary antibody (Vector Laboratories) with avidin-fluorescein visualization. Nuclei were detected by staining with 0.5 μg/ml DAPI (Molecular Probes). Images were captured using a Nikon TE300 microscope, Orca camera, and Openlab software (Improvision). The assay is called a “daughter pair analysis” (DPA). To perform the DPA, cells were plated in Xs-containing medium at microcolony density. After allowing 4 to 5 hours for cell adherence, parallel cultures were replaced with fresh medium that was either Xs-supplemented or Xs-free. After allowing time for cell divisions to produce “daughter pairs”, the cells were cultured for 4 hours with the thymidine analogue bromodeoxyuridine (BrdU). Cells were then fixed and evaluated for BrdU incorporation by in situ immunofluorescence.

[11] = test system: Lig-13 cells; assay: Daughter pair analysis (DPA), Lig-13; details: independent of Xs concentration
Method: as §2

[12] = test system: Lig-1 cells; assay: Colony formation efficiency, Lig-1
[13] = test system: Lig-8 cells; assay: Differentiation marker expression, Xs-free vs Xs-supplemented, Lig-8; design: key: −: no expression detected; +/−: weak expression; +: expression detected; !: increased expression in Xs-free conditions; *: no increased expression in Xs-free conditions
[14] = test system: Lig-9 cells; assay: Colony formation efficiency, Lig-9
[15] = test system: Lig-15 cells; assay: Colony formation efficiency, Lig-15
[16] = test system: Lig-2 cells; assay: Colony formation efficiency, Lig-2
[17] = test system: Xs-derived cell lines; assay: Colony formation efficiency, Xs-derived lines as a group; details: n=8
Text: as §1, with “shown). [table]” for “shown).”

[18] = test system: Lig-6 cells; assay: Colony formation efficiency, Lig-6
[19] = test system: Lig-8 cells; assay: Colony formation efficiency, Lig-8
[20] = test system: Lig-3 cells; assay: Colony formation efficiency, Lig-3
[21] = in situ immunofluorescence, confluent growth arrest in 1% serum 1-2 weeks
[22] = 50 μM xanthosine, 200 cells per well, 14 days
[23] = colony formation efficiency, 50 μM xanthosine vs Xs-free

Question: Which results are given for O=c1[nH]c(=O)c2ncn([C@@H]3O[C@H](CO)[C@@H](O)[C@H]3O)c2[nH]1 [Xs, Xanthosine]?
Answer: Colony formation efficiency Xs+ (Mean % ± SD; n = 6) ([1]; Lig-14 (derived in 200 μM Xs), 50 μM xanthosine, 200 cells per well, 14 days): 0.4 ± 0.67%; Xs+/Xs− Ratio ([1]; Lig-14, colony formation efficiency, 50 μM xanthosine vs Xs-free): 1.3; Colony formation efficiency Xs+ (Mean % ± SD; n = 6) ([2]; Lig-4 (derived in 400 μM Xs), 50 μM xanthosine, 200 cells per well, 14 days): 8.0 ± 1.1%; Xs+/Xs− Ratio ([2]; Lig-4, colony formation efficiency, 50 μM xanthosine vs Xs-free): 1.5; growth of conventional cell lines with Xs [3]: unaffected; Colony formation efficiency Xs+ (Mean % ± SD; n = 6) ([4]; Lig-7 (derived in 400 μM Xs), 50 μM xanthosine, 200 cells per well, 14 days): 6.7 ± 2.2%; Xs+/Xs− Ratio ([4]; Lig-7, colony formation efficiency, 50 μM xanthosine vs Xs-free): ≧22; Albumin (ALB) expression, change in Xs-free conditions ([5]; immunoblot): +*; Cytokeratin 7 (CK7) expression, change in Xs-free conditions ([5]; immunoblot): +!; α1-Antitrypsin (AAT) expression, change in Xs-free conditions ([5]; immunoblot): +/−*; α-Fetoprotein (AFP) expression, change in Xs-free conditions ([5]; immunoblot): +*; H.4 expression, change in Xs-free conditions [5, 21]: +/−*; H.4 expression, change in Xs-free conditions [6]: +*; Colony formation efficiency Xs+ (Mean % ± SD; n = 6) ([7]; Lig-13 (derived in 200 μM Xs), 50 μM xanthosine, 200 cells per well, 14 days): 12 ± 2.7%; Xs+/Xs− Ratio ([7]; Lig-13, colony formation efficiency, 50 μM xanthosine vs Xs-free): 40; increase in colony formation efficiency in Xs-supplemented medium ([7]; Lig-13, p<0.0001): 40 fold; H.4 expression, change in Xs-free conditions [8]: +/−*; effect of Xs on terminal division fraction ([9]; 100 μM Xs): did not significantly affect; Terminal Division Fraction ([9]; Xs+, 2-cell microcolonies with no division in 5 days, Xs− 0.58): 0.47; fraction of double-BrdU(+) daughter pairs [10]: 76%; fraction of symmetric BrdU(+) daughter pairs [11]: 76%; Colony formation efficiency Xs+ (Mean % ± SD; n = 6) [12, 22]: 9.8 ± 2.2%; Xs+/Xs− Ratio [12, 23]: 0.9; Albumin (ALB) expression, change in Xs-free conditions ([13]; immunoblot): +!; Cytokeratin 7 (CK7) expression, change in Xs-free conditions ([13]; immunoblot): +*; α1-Antitrypsin (AAT) expression, change in Xs-free conditions ([13]; immunoblot): +!; α-Fetoprotein (AFP) expression, change in Xs-free conditions ([13]; immunoblot): +!; H.4 expression, change in Xs-free conditions [13, 21]: +!; Colony formation efficiency Xs+ (Mean % ± SD; n = 6) ([14]; Lig-9 (derived in 400 μM Xs), 50 μM xanthosine, 200 cells per well, 14 days): 11 ± 2.6%; Xs+/Xs− Ratio ([14]; Lig-9, colony formation efficiency, 50 μM xanthosine vs Xs-free): 1.1; Colony formation efficiency Xs+ (Mean % ± SD; n = 6) ([15]; Lig-15 (derived in 200 μM Xs), 50 μM xanthosine, 200 cells per well, 14 days): 10 ± 1.6%; Xs+/Xs− Ratio ([15]; Lig-15, colony formation efficiency, 50 μM xanthosine vs Xs-free): 5.3; Colony formation efficiency Xs+ (Mean % ± SD; n = 6) [16, 22]: 29 ± 3.7%; Xs+/Xs− Ratio [16, 23]: 1.0; estimated mean increase in colony formation efficiency in Xs-supplemented medium [17]: 11 fold; Colony formation efficiency Xs+ (Mean % ± SD; n = 6) ([18]; Lig-6 (derived in 400 μM Xs), 50 μM xanthosine, 200 cells per well, 14 days): 5.3 ± 1.8%; Xs+/Xs− Ratio ([18]; Lig-6, colony formation efficiency, 50 μM xanthosine vs Xs-free): 1.4; Colony formation efficiency Xs+ (Mean % ± SD; n = 6) ([19]; Lig-8 (derived in 400 μM Xs), 50 μM xanthosine, 200 cells per well, 14 days): 22 ± 3.6%; Xs+/Xs− Ratio ([19]; Lig-8, colony formation efficiency, 50 μM xanthosine vs Xs-free): 17; Colony formation efficiency Xs+ (Mean % ± SD; n = 6) [20, 22]: 18 ± 3.7%; Xs+/Xs− Ratio [20, 23]: 1.0
